Experimental data published in patent US6555702B2, “Protein kinase inhibitor” (Calyx Therapeutics, Inc., priority 1997, dated 2003).
Entries after “also recorded” stand apart in the source; their conditions may differ.

Experiments:
[1] = tested on: IL 12 secretion by splenic macrophages; assay: IL 12 secretion by LPS-stimulated splenic macrophages; format: cell-based; conditions: mouse splenic macrophages, 5 ug/ml LPS, varying doses, 72 hr; FIG. 1A
Description: The effects of these three tyrphostins on the secretion of pro-inflammatory cytokines from macrophages were compared. Mouse splenic macrophages were stimulated with 5 ugh/ml lipopolysaccharide (LPS) and treated with varying doses of tyrphostins. The cells were cultured for 72 hr and the amount of IL 12 and nitric oxide was measured. […] Similar results were obtained with respect to nitric oxide levels, with tyrphostin A1 (FIG. 1B) showing good results.

[2] = tested on: mitogen stimulated splenic T cells; assay: T cell proliferation induced by IL 2; format: cell-based, mouse; conditions: stimulated with 1 U/ml IL 2
[3] = tested on: mitogen stimulated splenic T cells; assay: T cell proliferation induced by IL 12; format: cell-based, mouse; conditions: stimulated with 10 U/ml IL 12
leukemic cells = conditions: acute lymphoblastic leukemia; background statement; cited from earlier work
Solubility (Table A) = format: physicochemical; conditions: solvents in which the compound is soluble
septic shock = conditions: background statement; cited from earlier work
NOD mice = assay: Hypoglycemic effect in non-obese diabetic (NOD) mice; format: in vivo, mouse; conditions: daily oral administration, treatment mode, vs vehicle; FIG. 5
Description: The hypoglycemic effect of Compound 2 (water-soluble analog of A1) was evaluated in the treatment mode in non-obese diabetic (NOD) mice.

| Compound | inhibition of IL 12 secretion [1] | inhibition of T cell proliferation [2] | inhibition of T cell proliferation [3] | SOLUBILITY (Solubility (Table A)) | other results |
| --- | --- | --- | --- | --- | --- |
| N#C/C(=C\c1ccc(O)c(O)c1)C(=O)NCc1ccccc1 [Tyrphostin B42] | inhibited IL 12 production | inhibited T cell proliferation | inhibited T cell proliferation | – | prevention of growth of leukemic cells (leukemic cells): effective in preventing the growth of leukemic cells |
| CCOC(=O)COc1ccc(C=C(C#N)C#N)cc1 [Compound 6] | – | – | – | Chloroform Ethanol (warm) | – |
| N#CC(C#N)=Cc1ccc([N+](=O)[O-])c(O)c1 [Tyrphostin A10] | inhibited IL 12 production | did not show any significant inhibition | did not show any significant inhibition | – | protection in septic shock (septic shock): protective in septic shock |
| N#CC(C#N)=Cc1ccc(O)cc1 [Compound 7] | – | – | – | Ethanol Acetone | – |
| N#CC(C#N)=Cc1ccc(OCC(=O)[O-])cc1.[Na+] [Compound 5] | – | – | – | Water | – |
| N#CC(C#N)=Cc1ccc(C(=O)[O-])cc1.[Na+] [Compound 2, Sodium 1-cyano-3-(4-carboxy-phenyl)-acrylonitrile] | – | – | – | Water | effect on blood glucose level (NOD mice): significant effect on blood glucose level; also recorded: lowering blood glucose level |
